Experimental data from patent US10363234B2, “Antihypertensive agent” (WAKUNAGA PHARMACEUTICAL CO., LTD., priority 2015, dated 2019).

Key:
Format in all cases: in vivo, rat
[1] = system: Spontaneous Hypertensive Rats (SHR); experiment: Single oral administration of S1PC to spontaneous hypertensive rats, systolic blood pressure (Test Example 1); settings: SHR/Izm rats, single oral dose 6.5 mg/kg, 1.5 to 6 hours after the administration, t-test
Protocol: Effect of Administering S-1-Propenylcysteine (S1PC) to Spontaneous Hypertensive Rats (SHR)
(§1) One group of eight 8-week-old male SHR/Izm rats purchased from Japan SLC, Inc. (Hamamatsu-shi) was preliminarily bred for two weeks. During preliminary breeding, handling was performed on the rats, and the rats were bred in a constant environment (temperature; 23±1° C., humidity; 50±10%, light-dark cycle; 12 hours (light period; 7 to 19 o'clock)) and freely fed with an artificial diet (CE-2; CLEA Japan, Inc.) and sterilized tap water.
(§2) The administration was performed by forced oral administration using a disposable feeding needle and the fluid volume to be administered was 10 mL per 1 kg of SHR weight. As a sample to be administered, about 15 mg of S-1-propenylcysteine produced in Production Example 2 (a cis- and trans-mixture) was precisely weighed and dissolved in 15 mL of purified water. […]
(§3) Before the start of administration (0 hour) and after the administration (1.5, 3, 6, and 24 hours), the systolic blood pressure at the base of each tail was measured without anesthesia using a non-preheating, non-invasive blood pressure monitor (MK-2000ST, Muromachi Kikai Co., Ltd.). Note that the measurement was performed five times per individual, the upper and lower values were eliminated, and an average of the remaining measured values was defined as a systolic blood pressure value of the individual. […]

[2] = system: Spontaneous Hypertensive Rats (SHR); experiment: Single oral administration of S1PC and SAC to spontaneous hypertensive rats, systolic blood pressure (Test Example 2); settings: SHR/Izm rats, single oral dose 1 mg/kg, S1PC effect 3 hours after the administration, Bonferroni test
Protocol: Effect of Administering S-1-Propenylcysteine (S1PC) and S-Allylcysteine (SAC) to Spontaneous Hypertensive Rats (SHR)
as §1, with “three” for “two”
(§4) The administration was performed by forced oral administration using a disposable feeding needle and the fluid volume to be administered was 10 mL per 1 kg of SHR weight. […]
as §3, with “(3,” for “(1.5, 3,”

[3] = system: Spontaneous Hypertensive Rats (SHR); experiment: Repeated oral administration of S1PC to spontaneous hypertensive rats for 10 weeks, systolic blood pressure (Test Example 3); settings: SHR/Izm rats, 6.5 mg/kg oral once a day for 10 weeks, two-way ANOVA
Protocol: Effect of Repeated Oral Administration of S-1-Propenylcysteine (S1PC) on Spontaneous Hypertensive Rats (SHR)
as §1, with “ten” for “eight”
as §4
Before the repeated oral administration (0 hour), and every other week after the administration up to 10 weeks, the systolic blood pressure at the base of each tail was measured without anesthesia using a non-preheating, non-invasive blood pressure monitor (MK-2000ST, Muromachi Kikai Co., Ltd.). Note that the measurement was performed five times per individual, the upper and lower values were eliminated, and an average of the remaining measured values was defined as a systolic blood pressure value of the individual. […]

Normotensive Rats (WKY) = experiment: Single oral administration of S1PC to normotensive rats, systolic blood pressure (Test Example 4); settings: WKY/Izm rats, single oral dose 6.5 mg/kg, measured 3, 6 and 24 hours
Protocol: Effect of Administering S-1-Propenylcysteine (S1PC) to Normotensive Rats (WKY)
as §1, with “four” for “eight”, “WKY/Izm” for “SHR/Izm”
as §2, with “WKY” for “SHR”
as §3, with “(3,” for “(1.5, 3,”

SMILES	antihypertensive effect (systolic blood pressure) as compared with the control group [1]	antihypertensive effect (systolic blood pressure) as compared with the control group [2]	antihypertensive effect (systolic blood pressure) as compared with the control group [3]	antihypertensive effect (systolic blood pressure) on normotensive rats (Normotensive Rats (WKY))
CC=CSCC(N)C(=O)O (centres unmarked) [S-1-propenylcysteine]	significant antihypertensive effect	significant antihypertensive effect	significant antihypertensive effect	no significant antihypertensive effect
C=CCSC[C@H](N)C(=O)O [SAC, S-allylcysteine, reference compound]	–	no significant antihypertensive effect	–	–
